Where two headings read alike, the source gives them in different places.
Experiments:
[1] = system: NF-κB luciferase reporter in Ad5-wt-hERα infected HAECT-1 cells; experiment: ER/NF-κB-luc: IL-1β induced NF-κB luciferase reporter in Ad5-wt-ER infected HAECT-1 cells; format: cell-based; details: Homo sapiens; for IC50: HAECT1, Ad5-wt-ER infected HAECT-1 cells, IL-1β, read-out: ER/NF-KB-luc IC50; for Emax: HAECT1, efficacy relative to the maximal inhibition observed with E2, read-out: ER/NF-KB-luc % Eff*
Protocol: (§1) T-175 flasks of 100% confluent HAECT-1 cells (immortalized human aortic endothelial cells) were washed with 8 ml of HBSS (HEPES buffered saline solution) and infected for four hours with 6 ml of a 1:10 dilution of Ad5-wt-hERα virus (an adenovirus transfection vector that mediates CMV promoter driven expression of human ERα) in phenol red free Endothelial Cell Basal medium (Clonetics, San Diego Calif., Catalog # CC-3129) containing 0.25% bovine serum albumin (EBM-BSA). After four hours, cells were washed with EBM-BSA and incubated overnight in the same medium. Following overnight incubation, cells were washed with EBM-BSA and infected for 2 hours with 6 ml of a 1:10 dilution of Ad5-3×(NFκB).Luc virus (Adenovirus luciferase expression vector driven by 3 repeats of the MHC NFκb site 5′ to the thymidine kinase promoter) in EBM-BSA. After two hours, cells were washed and incubated at 34° C. for 1 hour. Cells were then washed, trypsinized, counted and resuspended in 95% FBS/5% dimethylsulfoxide at a concentration of 4×10^6 cells/ml, frozen as 1 or 5 ml aliquots in cryo-vials and stored at −150° C. Control (no ER infection) cells were processed as above without Ad5-wt-hERα virus infection.
(§2) ERα infected HAECT-1 cells or control cells were thawed, diluted 42× in warm EBM-BSA, plated into 96-well plates at 0.1 ml/well and incubated for 4 h at 34° C. Test compounds were added to the cells as 2× stocks in EBM-BSA containing 2 ng/ml IL-1β (R&D Systems) and plates were returned to the incubator (34° C.). After 15-20 h, 100 μl aliquots of media were removed from the cells and assayed for IL-6 content using a BioSource human IL-6 ELISA Kit. Cells were subsequently washed with 300 μl of Dulbecco's phosphate buffered saline and lysed in 50 μl of Cell Culture Lysis Reagent (Promega). Luciferase was determined on a Wallac Victor^2 Luminometer (Gaithersburg, Md.) using 10 μl of lysate and mixing with 100 μl of Promega Luciferase Assay reagent. Creatine kinase was determined from the rate of increase in A340 following addition of 100 μl of CK assay reagent (Sigma, cat. No 47-10) to the remainder of the cell lysate.
(§3) For IC50 and EC50 calculations, mean IL-6, luciferase or CK values versus log10 of the compound concentration were fitted to a four parameter logistic equation. The IC50/EC50 value, ‘Hill slope’, upper and lower limits of the curve were iteratively estimated.

[2] = system: creatine kinase expression in Ad5-wt-hERα infected HAECT-1 cells; experiment: ER/CK: creatine kinase expression in Ad5-wt-ER infected HAECT-1 cells; format: cell-based, human; details: for EC50: Homo sapiens; for ER/CK % Eff*: efficacy relative to the maximal stimulation observed with E2
Protocol: as §1, §2, §3

RANTES mRNA = experiment: NF-κB target gene expression in liver of mice fed a high fat diet: RANTES; format: in vivo, C57BL/6 mice; details: 10 mg/kg
Protocol: (§4) Ovariectomized C57BL/6 mice (16-20 g) (Taconic) were separated into groups of 8. After 5-7 days of recuperation, the mice were fed a chow diet or an atherogenic diet (15.75% fat, 1.25% cholesterol and 0.5% sodium cholate) (Purina diet #21539). EE or test compound was administered once daily by gavage in a methylcellulose/tween vehicle (0.1 ml per mouse) for 5 weeks. At the end of the experimental period, the liver was collected and uterine wet weight was recorded.
(§5) Liver total RNA was prepared by using Trizol reagent (BRL). Estrogen and compound regulation of NF-κB target genes were verified by real time RT-PCR using an ABI PRISM 7700 Sequence Detection System according to the manufacturer's protocol (Applied Biosystems). The data was analyzed using the Sequence Detector v1.7 software (Applied Biosystems) and normalized to GAPDH using the Applied Biosystems primer set.
(§6) To determine the ability of estrogens to regulate the development of diet-induced inflammation in the liver, gene expression changes resulting from the atherogenic diet were monitored. Ovariectomized C57BL/6 mice were fed either a chow or atherogenic diet and treated daily with EE (0.01 mg/kg) or test compound (Table 2).

TNF-α mRNA = experiment: NF-κB target gene expression in liver of mice fed a high fat diet: TNFa; format: in vivo, C57BL/6 mice; details: 10 mg/kg
Protocol: as §4, §5, §6

VCAM-1 mRNA = experiment: NF-κB target gene expression in liver of mice fed a high fat diet: VCAM-1; format: in vivo, C57BL/6 mice; details: 10 mg/kg
Protocol: as §4, §5, §6

MHC invariant chain mRNA = experiment: NF-κB target gene expression in liver of mice fed a high fat diet: MHC; format: in vivo, C57BL/6 mice; details: 10 mg/kg
Protocol: as §4, §5, §6

[3] = system: IL-6 expression in Ad5-wt-hERα infected HAECT-1 cells; experiment: ER/IL-6: IL-6 expression (ELISA) in Ad5-wt-ER infected HAECT-1 cells; format: cell-based, human; details: for IC50: IL-1β; for ER/IL-6 % Eff: efficacy relative to the maximal inhibition observed with E2
Protocol: as §1, §2, §3

[4] = HAECT1, read-out: ER/CK EC50 (nM)
[5] = once daily by gavage, 5 weeks, ovariectomized mice on atherogenic diet, liver RT-PCR
[6] = Homo sapiens, HAECT1, Ad5-wt-ER infected HAECT-1 cells
[7] = Ad5-wt-ER infected HAECT-1 cells

`C/C=C/Cn1nc(C(=O)c2cccc(O)c2)c2ccccc21` gave a melting point of 75 to 78 °C.
`CC(C)=CCn1nc(C(=O)c2cccc(O)c2)c2ccccc21` gave a melting point of 92 to 94 °C.
Compound `Oc1cccc(Cc2n[nH]c3ccccc23)c1` [Example 1, 3-[(1H-indazol-3-yl)methyl]phenol] has a melting point of 170 to 172 °C.
`CCCn1nc(C(=O)c2cccc(O)c2)c2ccccc21` [Example 3, (3-hydroxyphenyl)(1-propyl-1H-indazol-3-yl)methanone] gave an IC50 [1] of 722 nM, an Emax [1] of 70% and an EC50 [2, 4] of 2640 nM. For the same compound, the “ER/CK % Eff*” value [2] was 35%.
For `O=C(c1cccc(O)c1)c1nn(C2CCCC2)c2ccccc12` [Example 4, (1-cyclopentyl-1H-indazol-3-yl)(3-hydroxyphenyl)methanone], the RANTES % inhib (RANTES mRNA; [5]) was 67%, the “RANTES (eff %)” value (RANTES mRNA; value in parentheses) was 151% and the IC50 [1] was 170 nM. For the same compound, the Emax [1] was 77%, the TNFa % inhib (TNF-α mRNA; [5]) was 45% and the “TNFa (eff %)” value (TNF-α mRNA; value in parentheses) was 100%. The VCAM-1 % inhib (VCAM-1 mRNA; [5]) was 59%, the “VCAM-1 (eff %)” value (VCAM-1 mRNA; value in parentheses) was 100% and the MHC % inhib (MHC invariant chain mRNA; [5]) was 60%. The “MHC (eff %)” value (MHC invariant chain mRNA; value in parentheses) was 138%, the IC50 [3, 6] was 66 nM and the “ER/IL-6 % Eff” value [3] was 109%. The EC50 [2, 4] was 1330 nM and the “ER/CK % Eff*” value [2] was 57%.
Work on `CC(C)n1nc(C(=O)c2cccc(O)c2)c2ccccc21` [Example 5, (3-hydroxyphenyl)(1-isopropyl-1H-indazol-3-yl)methanone] yielded an IC50 [1] of 1070 nM, an Emax [1] of 83% and an EC50 [2, 4] of 1790 nM. The “ER/CK % Eff*” value [2] was 55%.
In the case of `Oc1cccc(Cc2nn(C3CCCC3)c3ccccc23)c1` [Example 6, 3-[(1-cyclopentyl-1H-indazol-3-yl)methyl]phenol], the IC50 [1] is reported as 570 nM, the Emax [1] is reported as 54% and the “ER/CK EC50 (nM)” value [2, 7] is reported as “ia”.
For `O=C(c1ccc(O)cc1)c1n[nH]c2c(C(F)(F)F)cccc12` [Example 7, (4-hydroxyphenyl)[7-(trifluoromethyl)-1H-indazol-3-yl]methanone], the IC50 [1] was 1000 nM, the Emax [1] was 43% and the “ER/CK EC50 (nM)” value [2, 7] was “ia”.
Compound `O=C(c1ccc(O)cc1)c1nn(C2CCCC2)c2c(C(F)(F)F)cccc12` [Example 8, [1-cyclopentyl-7-(trifluoromethyl)-1H-indazol-3-yl](4-hydroxyphenyl)methanone] has an IC50 [1] of 94 nM, an Emax [1] of 87% and a melting point of 225 to 226 °C. For the same compound, the “ER/CK EC50 (nM)” value [2, 7] was “ia”.
For `CC(C)n1nc(C(=O)c2ccc(O)cc2)c2cccc(C(F)(F)F)c21` [Example 9, (4-hydroxyphenyl)[1-isopropyl-7-(trifluoromethyl)-1H-indazol-3-yl]methanone], the IC50 [1] was 107 nM, the Emax [1] was 80% and the “ER/CK EC50 (nM)” value [2, 7] was “ia”.
With `O=C(c1cccc(O)c1)c1n[nH]c2c(C(F)(F)F)cccc12` [Example 10, (3-hydroxyphenyl)[7-(trifluoromethyl)-1H-indazol-3-yl]methanone] the IC50 [1] was 593 nM, the Emax [1] was 88% and the “ER/CK EC50 (nM)” value [2, 7] was “ia”.
`CCCn1nc(C(=O)c2cccc(O)c2)c2cccc(C(F)(F)F)c21` [Example 11, (3-hydroxyphenyl)[1-propyl-7-(trifluoromethyl)-1H-indazol-3-yl]methanone] showed an IC50 [1] of 198 nM, an Emax [1] of 82% and a melting point of 118 °C. For the same compound, the “ER/CK EC50 (nM)” value [2, 7] was “ia”.
Compound `O=C(c1cccc(O)c1)c1nn(C2CCCC2)c2c(C(F)(F)F)cccc12` [Example 12, [1-cyclopentyl-7-(trifluoromethyl)-1H-indazol-3-yl](3-hydroxyphenyl)methanone] has an IC50 [1] of 54 nM, an Emax [1] of 73% and a melting point of 152 °C. The EC50 [2, 4] was 139 nM and the “ER/CK % Eff*” value [2] was 32%.
Compound `CC(C)n1nc(C(=O)c2cccc(O)c2)c2cccc(C(F)(F)F)c21` [Example 13, (3-hydroxyphenyl)[1-isopropyl-7-(trifluoromethyl)-1H-indazol-3-yl]methanone] has an IC50 [1] of 63 nM, an Emax [1] of 85% and a melting point of 145 °C. The “ER/CK EC50 (nM)” value [2, 7] was “ia”.
In the case of `C=C(C)Cn1nc(C(=O)c2cccc(O)c2)c2ccccc21` [Example 14, (3-hydroxyphenyl)[1-(2-methylprop-2-enyl)-1H-indazol-3-yl]methanone], the IC50 [1] is reported as 388 nM, the Emax [1] is reported as 103% and the melting point is reported as 75 to 78 °C. The “ER/CK EC50 (nM)” value [2, 7] was “ia”.
Work on `CC(C)Cn1nc(C(=O)c2cccc(O)c2)c2ccccc21` [Example 17, (3-hydroxyphenyl)(1-isobutyl-1H-indazol-3-yl)methanone] yielded an IC50 [1] of 710 nM, an Emax [1] of 100% and a melting point of 108 to 110 °C. For the same compound, the EC50 [2, 4] was 1570 nM and the “ER/CK % Eff*” value [2] was 51%.
For `C=CCn1nc(C(=O)c2cccc(O)c2)c2ccccc21` [Example 18, (1-allyl-1H-indazol-3-yl)(3-hydroxyphenyl)methanone], the IC50 [1] was 1240 nM, the Emax [1] was 92% and the “ER/CK EC50 (nM)” value [2, 7] was “ia”.
For `O=C(c1cccc(O)c1)c1nn(Cc2ccccc2)c2ccccc12` [Example 19, (1-benzyl-1H-indazol-3-yl)(3-hydroxyphenyl)methanone], the IC50 [1] was 409 nM, the Emax [1] was 92% and the “ER/CK EC50 (nM)” value [2, 7] was “ia”.
Compound `O=C(c1cccc(O)c1)c1nn(C2C=CCCC2)c2ccccc12` (centres unmarked) [Example 20, (1-cyclohex-2-en-1-yl-1H-indazol-3-yl)(3-hydroxyphenyl)methanone] has an IC50 [1] of 155 nM, an Emax [1] of 87% and a melting point of 140 to 141 °C. The “ER/CK EC50 (nM)” value [2, 7] was “ia”.
With `COc1cccc(-n2nc(C(=O)c3cccc(O)c3)c3ccccc32)c1` [Example 22, (3-hydroxyphenyl)[1-(3-methoxyphenyl)-1H-indazol-3-yl]methanone] the IC50 [1] was 475 nM, the Emax [1] was 75% and the “ER/CK EC50 (nM)” value [2, 7] was “ia”.
In the case of `O=C(c1cccc(O)c1)c1c2ccccc2nn1-c1ccc(Br)cc1` [Example 23, [2-(4-bromophenyl)-2H-indazol-3-yl](3-hydroxyphenyl)methanone], the IC50 [1] is reported as 82 nM, the Emax [1] is reported as 79% and the “ER/CK EC50 (nM)” value [2, 7] is reported as “ia”.
Work on `C[C@]12CC[C@@H]3c4ccc(O)cc4CC[C@H]3[C@@H]1CC[C@@H]2O` [Example E2, 17β-estradiol, reference compound] yielded an IC50 [1] of about 1 nM, an Emax [1] of 100% and an IC50 [3, 7] of 1.7 nM. For the same compound, the IC50 [3, 6] was about 1 nM, the “ER/IL-6 % Eff” value [3] was 100% and the EC50 ([2]; HAECT1, Ad5-wt-ER infected HAECT-1 cells, read-out: ER/CK EC50) was 5.8 nM. For the same compound, the “ER/CK % Eff*” value [2] was 100%.

Source: patent US7598286B2, “[(1H-indazol-3-yl)methyl]phenols and (hydroxyphenyl)(1H-indazol-3-yl)methanones” (Wyeth, priority 2004, dated 2009)
